# ChEMBL document CHEMBL1201862, “PubChem BioAssay data set” (2004)
#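 Growth conditions: 96-well plates. Treatment: test compound, 48 hours, 5 concentrations. Analysis: linear interpolation between bracketing concentrations; unreached endpoints set to highest concentration. GI50 = concentration required for 50% inhibition of growth.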 Active and inactive are the calls of the source. No stated cut-off is given here; in the data, active = GI50 up to about 1.1 µM and inactive = higher.
# Experiments:
# Assay in all cases: NCI tumour cell line growth inhibition, 48 h
# DMS-114 = system: DMS-114
# LXFL 529 = system: LXFL 529
# RXF 631 = system: RXF 631
# SNB-78 = system: SNB-78
# M19-MEL = system: M19-MEL
# DLD-1 = system: DLD-1
# HOP-18 = system: HOP-18
# DMS-273 = system: DMS-273
# XF498 = system: XF498
Structure (SMILES),GI50 (DMS-114),GI50 (LXFL 529),GI50 (RXF 631),GI50 (SNB-78),GI50 (M19-MEL),GI50 (DLD-1),GI50 (HOP-18),GI50 (DMS-273),GI50 (XF498)
Cc1cccc2c1c1ccc3c(c1n2C)C(=O)C=CC3=O,6.35 µM (inactive),2.01 µM (inactive),6.79 µM (inactive),16.2 µM (inactive),5.33 µM (inactive),2.28 µM (inactive),10 µM (inactive),3.11 µM (inactive),–
CC1(C)C=C(N2CCN(C3=CC(C)(C)NC(C)(C)C3)CC2)CC(C)(C)N1,> 100 µM (inactive),> 100 µM (inactive),–,> 100 µM (inactive),> 100 µM (inactive),> 100 µM (inactive),> 100 µM (inactive),> 100 µM (inactive),> 100 µM (inactive)
COc1ccc2c(c1)[n+]([O-])c(C(=O)CC(=O)C(=O)Nc1cccc(C)c1C)c(C)[n+]2[O-],> 100 µM (inactive),> 100 µM (inactive),> 100 µM (inactive),> 100 µM (inactive),> 100 µM (inactive),> 100 µM (inactive),> 100 µM (inactive),–,> 100 µM (inactive)
CC(=O)CC(=O)Nc1ccc(OS(N)(=O)=O)cc1,> 100 µM (inactive),> 100 µM (inactive),> 100 µM (inactive),> 100 µM (inactive),> 100 µM (inactive),> 100 µM (inactive),> 100 µM (inactive),> 100 µM (inactive),> 100 µM (inactive)
Cc1ccc(N2C(=O)/C(=C3\Sc4c(nc(C)n(C)c4=O)N3c3ccccc3)SC2=S)cc1,35.6 µM (inactive),68.7 µM (inactive),–,40.8 µM (inactive),> 100 µM (inactive),–,–,25.2 µM (inactive),> 100 µM (inactive)
C=C(c1ccccc1)[C@@]1(O)CCCC[C@H]1NC(c1ccccc1)c1ccccc1,9.64 µM (inactive),11.1 µM (inactive),–,19.7 µM (inactive),15 µM (inactive),14.6 µM (inactive),19.9 µM (inactive),13.1 µM (inactive),–
CCOC(=O)/C(=C\c1ccc(OCc2ccccc2)c(OC)c1)C(=O)c1ccccc1,19.7 µM (inactive),–,–,31.3 µM (inactive),22.1 µM (inactive),–,–,–,18.1 µM (inactive)
COc1ccc(Cn2c(C)nc3c2C(=O)c2ccccc2C3=O)cc1,–,4.31 µM (inactive),–,16.1 µM (inactive),7.91 µM (inactive),4.67 µM (inactive),–,3.32 µM (inactive),11.7 µM (inactive)
O=C1OC(Cc2ccccc2)(N2CCCC2=O)C1c1ccccc1 (stereo not drawn),23.7 µM (inactive),78.3 µM (inactive),–,> 100 µM (inactive),> 100 µM (inactive),55.3 µM (inactive),–,–,20.3 µM (inactive)
CC(=O)OCc1c2ccccc2c(C)c2c1cc(F)c1ccccc12,31.5 µM (inactive),29.6 µM (inactive),25.8 µM (inactive),14.3 µM (inactive),–,14.8 µM (inactive),24.6 µM (inactive),10.4 µM (inactive),16.6 µM (inactive)
Cc1ccc(/C=N\NC2c3cc(Cl)ccc3Nc3nc(O)nc(C)c32)cc1 (stereo not drawn),> 100 µM (inactive),> 100 µM (inactive),–,> 100 µM (inactive),> 100 µM (inactive),> 100 µM (inactive),–,91.4 µM (inactive),> 100 µM (inactive)
COC(=O)C(=O)C(CC(=O)Nc1cc(Cl)ccc1Cl)C(=O)OC (stereo not drawn),> 100 µM (inactive),> 100 µM (inactive),–,> 100 µM (inactive),–,–,> 100 µM (inactive),> 100 µM (inactive),–
CC(=S)NNC(=O)c1ccncc1,–,> 100 µM (inactive),–,> 100 µM (inactive),> 100 µM (inactive),> 100 µM (inactive),> 100 µM (inactive),> 100 µM (inactive),> 100 µM (inactive)
Cc1ccc(S(=O)OC23CC4CC(CC(C4)C2)C3)cc1 (stereo not drawn),78.5 µM (inactive),> 100 µM (inactive),72.8 µM (inactive),> 100 µM (inactive),> 100 µM (inactive),> 100 µM (inactive),> 100 µM (inactive),> 100 µM (inactive),> 100 µM (inactive)
[O-][Cl+3]([O-])([O-])O.c1ccc(/N=c2\nc(N3CCOCC3)ss2)cc1,14.6 µM (inactive),12.2 µM (inactive),17.4 µM (inactive),22 µM (inactive),18 µM (inactive),14.6 µM (inactive),> 100 µM (inactive),17.4 µM (inactive),17.9 µM (inactive)
COc1ccc(C2=C(Cl)c3cc(OC)c(OC)cc3C2)cc1OC,> 100 µM (inactive),> 100 µM (inactive),–,> 100 µM (inactive),> 100 µM (inactive),> 100 µM (inactive),> 100 µM (inactive),> 100 µM (inactive),> 100 µM (inactive)
COc1ccc(CCNCc2cccc(OC)c2OC)cc1OC,> 100 µM (inactive),> 100 µM (inactive),> 100 µM (inactive),> 100 µM (inactive),> 100 µM (inactive),> 100 µM (inactive),–,> 100 µM (inactive),> 100 µM (inactive)
COC(=O)C1=C(c2cc(OC)c(OC)c(OC)c2)OC(c2cc(OC)c(OC)c(OC)c2)C1 (stereo not drawn),30.7 µM (inactive),22.4 µM (inactive),–,51.8 µM (inactive),26.7 µM (inactive),21.9 µM (inactive),19.5 µM (inactive),22.5 µM (inactive),24.4 µM (inactive)
CC(=O)C(CN(C(C)C)C(C)C)C(c1ccccc1)c1c(O)c2ccccc2oc1=O (stereo not drawn),> 100 µM (inactive),> 100 µM (inactive),> 100 µM (inactive),97.1 µM (inactive),> 100 µM (inactive),> 100 µM (inactive),> 100 µM (inactive),> 100 µM (inactive),–
COc1cc(/C=C2\[C@@H]3NC(Cc4c(OC)c(C)c(OC)c(OC)c43)C(=O)N2Cc2ccccc2)c(OC)c(C)c1OC,29.8 µM (inactive),37.5 µM (inactive),53.7 µM (inactive),–,28.5 µM (inactive),45.4 µM (inactive),43.8 µM (inactive),27.9 µM (inactive),–
CC(CC[C@@H](C)C1CCC2[C@@H]3CC(O)C4CC(O)[C@@H](O)C[C@]4(C)C3CC[C@@]21C)C(C)(C)C (stereo partly drawn),> 100 µM (inactive),> 100 µM (inactive),–,> 100 µM (inactive),> 100 µM (inactive),> 100 µM (inactive),> 100 µM (inactive),> 100 µM (inactive),> 100 µM (inactive)
COc1c(CC=C(C)C)c(O)c(C(CC(C)C)c2c(O)c(CC=C(C)C)c(O)c(C(C)=O)c2O)c(O)c1C(C)=O (stereo not drawn),0.19 µM (active),–,0.425 µM (active),1.7 µM (inactive),1.43 µM (inactive),0.38 µM (active),0.551 µM (active),0.333 µM (active),0.596 µM (active)
CC(=O)N1CCN(c2ccc(OCC3COC(Cn4ccnc4)(c4ccc(Cl)cc4Cl)O3)cc2)CC1 (stereo not drawn) [KETOCONAZOLE],16 µM (inactive),26.4 µM (inactive),–,–,21.4 µM (inactive),33 µM (inactive),> 100 µM (inactive),20.5 µM (inactive),–
